Experimental data reported in patent US5321045A, “Method and composition for the treatment of imflammatory conditions using thiosulphinic acid derivatives” (Boehringer Mannheim GmbH, priority 1987, dated 1994).

Experiments:
[1] = system: thromboxane biosynthesis of thrombin-stimulated platelet-rich plasma; assay: Inhibition of the thromboxane biosynthesis of thrombin-stimulated platelet-rich plasma; format: cell-based, human; settings: 0.001 mg/ml to 1.0 mg/ml, 15 min
Procedure: The enzyme-inhibiting action of the compounds were determined in vitro; use of the mixture of compounds 1) and 2).
From a human donor was obtained platelet-rich plasma by the usual method and adjusted to a platelet count of […]. This plasma was incubated either with a solvent (1% dimethyl sulphoxide (DMSO) -physiological common salt solution) or with various concentrations of the compounds (s. Table II).
5 Minutes later, the platelets were stimulated with thrombin (1 or 10 International Units=I.U.) at 37° C. After 15 minutes, the reaction was stopped with ice-cold methanol (volume ratio 1:1), thereafter separated by 10 minutes centrifuging at 3000 U/min. (4° C.).

[2] = system: allergen-induced asthma bronchiale; assay: Protective action in allergen-induced asthma bronchiale of guinea pigs (ovalbumin inhalation); format: in vivo; settings: FIGS. 4-6; dosage as in 1a); ovalbumin one percent, twice
Procedure: 1. Investigation of the asthma-protective action of compounds in vivo. There was used a mixture of compound 1) (identical with formula III on p.13 of the German text) and compound 2) (identical with formula IV on p.13 of the German text). The ratio of 1): 2) amounted to about 1:2.
For the investigation of the asthma-protective action in vivo, corresponding experiments were carried out with guinea pigs (Dorsch W. et al., Pflugers Arch. 391, page 263 (1981).
9 guinea pigs were--was described under 1a)--corresponding to a randomised crossover protocol, either fed with the active component in olive oil or with the carrier olive oil alone. The dosage of the administered compound amounted to 20 mg./kg. body weight. 30 Minutes later, the animals inhaled twice, at an interval of 10 minutes, in each case for 20 seconds, a one percent ovalbumin solution, the substance to which they had been sensitised 3 weeks previously. The extent of the resulting bronchial obstruction was also determined whole body plethysmographically in 2 minute intervals for the period of twice 10 minutes (for the method see: Dorsch W, Walter O., Rosmanith J.: Continuous Recording of Intrapulmonary "Compressed Air" as a Sensitive Noninvasive Method of Measuring Branchial Obstruction in Guinea Pigs, Pflugers Arch. 391: 236-241 (1981)). […]

SMILES: [O-][S+](Sc1ccccc1)c1ccccc1 (stereo not shown) [compound 4, phenylthiosulphinic acid phenyl ester]
- maximum dosage-dependent suppression of the thromboxane B2 biosynthesis [1]: 76%
- Asthmatic reaction to the inhalation of an antigen [2]: clearly weaken the asthmatic reaction

SMILES: CS[S+](C)[O-] (stereo not shown) [compound 3, methylthiosulphinic acid methyl ester]
- maximum dosage-dependent suppression of the thromboxane B2 biosynthesis [1]: 61%
- Asthmatic reaction to the inhalation of an antigen [2]: clearly weaken the asthmatic reaction
